Assay results from patent US8975282B2, “Substituted pyrazolone compounds and methods of use” (Calitor Sciences, LLC, priority 2012, dated 2015).
pKd: −log10 of the molar value. Like-named read-outs stand apart in the source and are kept apart here.

Experiments:
KDR (h) = KDR (h) (Homo sapiens (Human), UniProt P35968); test: KINOMEscan competition binding assay, KDR (h)
[1] = Pharmacokinetics after intravenous and oral administration in rats; format: in vivo, rat; conditions: for Cl/F / AUC(0-t) / half-life / Vd: iv dosing; for F: oral bioavailability; for AUC(0-t) / half-life / Vd: rat, plasma; for Vd: read-out: Vss
Method: The compounds disclosed herein are assessed in pharmacokinetic studies in mice, rats, dogs or monkeys. The compounds are administered as a water solution, 2% HPMC+1% TWEEN®80 in water solution, 5% DMSO+5% solutol in saline, 4% MC suspension or capsule. For the intravenous administration, the animals are generally given at 1 or 2 mg/kg dose. For the oral (p.o.) dosing, mice and rats are generally given 5 or 10 mg/kg dose, and dogs and monkeys are generally given 10 mg/kg dose. The blood samples (0.3 mL) are drawn at 0.25, 0.5, 1.0, 2.0, 3.0, 4.0, 6.0, 8.0, 12 and 24 h time points or 0.083, 0.25, 0.5, 1.0, 2.0, 4.0, 6.0, 8.0 and 24 h time points and centrifuged at 3,000 or 4000 rpm for 2 to 10 min. The plasma solutions are collected, stored at −20° C. or -70° C. until analyzed by LC/MS/MS as described above.

U87MG glioblastoma cells = test: U87MG tumor xenograft model, tumor growth inhibition; format: in vivo; conditions: nude mice, oral gavage once a day, 12 days
Method: The efficacy of compounds disclosed herein was evaluated in a standard murine model of tumorigenesis. Human tumor cells (U87MG glioblastoma cells from ATCC) were expended in culture, harvested, and injected subcutaneously onto the rear flank of 6-7 week old female athymic nude mice (BALB/cA nu/nu, Hunan SLAC Laboratory Animal, Co.) (n=6-10 for vehicle group and for each dosing group). When tumors reached a volume of 100-250 mm^3, animals were randomly divided into vehicle control (for example, 5% DMSO+70% Captisol® (30%), 7% HCl (pH1), 18% Captisol® (30%); or 7% DMSO, 7% HCl (pH1), 70% Captisol® (30%), 16% Captisol® (30%), or the like) and compound groups. Subsequent administration of compound by oral gavage begins anywhere from day 0 to day 15 post tumor cell challenge and generally continues with once a day for the duration of the experiment.
Progression of tumor growth is assessed by tumor volumes and recorded as a function of time. The long (L) and short (W) axes of the subcutaneous tumors were measured with calipers twice weekly, and the tumor volume (TV) calculated as (L×W^2)/2). TGI was calculated from the difference between the median tumor volumes of vehicle-treated and drug-treated mice, expressed as a percentage of the median tumor volume of the vehicle-treated control group, by the following relation:
[formula] Initial statistical analysis is done by repeated measures analysis of variance (RMANOVA), followed by Scheffe psot hoc testing for multiple comparisons. Vehicle alone (5% DMSO+70% Captisol® (30%), 7% HCl (pH1), 18% Captisol® (30%); or 7% DMSO, 7% HCl (pH1), 70% Captisol® (30%), 16% Captisol® (30%), or the like) is the negative control.

[2] = Compound stability in rat liver microsomes; format: in vitro ADME; conditions: for stability / metabolism in rat liver microsomes (in words): incubated in rat liver microsomes; for half-life at 5 μM / CLint scaled at 5 μM: pH 7.4, rat liver microsomes; for half-life at 5 μM: 0.5 mg protein/mL, compound 5 μM, NADPH 1.0 mM, 37° C.; for CLint scaled at 5 μM: in vivo CLint extrapolated
Method: Human or rat liver microsomes incubations were conducted in duplicate in polypropylene tubes. The typical incubation mixtures consisted of human or rat liver microsomes (0.5 mg protein/mL), compounds of interest (5 μM) and NADPH (1.0 mM) in a total volume of 200 μL, potassium phosphate buffer (PBS, 100 mM, pH 7.4). Compounds were dissolved in DMSO and diluted with PBS such that the final concentration of DMSO was 0.05%. The enzymatic reactions were commenced with the addition of protein after a 3-min preincubation and incubated in a water bath open to the air at 37° C. Reactions were terminated at various time points (0, 5, 10, 15, 30, 60 min) by adding equal volume of ice-cold acetonitrile. The samples were stored at −80° C. until LC/MS/MS assays.
The concentrations of compounds in the incubation mixtures of human or rat liver microsomes were determined by a LC/MS/MS method. The ranges of the linearity in the concentration range were determined for each tested compounds.
A parallel incubation was performed using denatured microsomes as the negative control, and reactions were terminated at various time points (0, 15, 60 min) after incubation at 37° C.
Dextromethorphan (70 μM) was selected as the positive control, and reactions were terminated at various time points (0, 5, 10, 15, 30, 60 min) after incubation at 37° C. Both positive and negative control samples were included in each assay to ensure the integrity of the microsomal incubation system.
The concentrations of compounds in human or rat liver microsome incubations were plotted as a percentage of the relevant zero time point control for each reaction. The in vivo CLint were extrapolated (ref: Naritomi Y, Terashita S, Kimura S, Suzuki A, Kagayama A, Sugiyama Y. Prediction of human hepatic clearance from in vivo animal experiments and in vitro metabolic studies with liver microsomes from animals and humans. Drug Metabolism and Disposition 2001, 29: 1316-1324.)

c-Met (h) = c-Met (h) (Homo sapiens (Human), UniProt P08581); test: KINOMEscan competition binding assay, c-Met (h)
Chain of c-Met (h) (P08581 25-1390): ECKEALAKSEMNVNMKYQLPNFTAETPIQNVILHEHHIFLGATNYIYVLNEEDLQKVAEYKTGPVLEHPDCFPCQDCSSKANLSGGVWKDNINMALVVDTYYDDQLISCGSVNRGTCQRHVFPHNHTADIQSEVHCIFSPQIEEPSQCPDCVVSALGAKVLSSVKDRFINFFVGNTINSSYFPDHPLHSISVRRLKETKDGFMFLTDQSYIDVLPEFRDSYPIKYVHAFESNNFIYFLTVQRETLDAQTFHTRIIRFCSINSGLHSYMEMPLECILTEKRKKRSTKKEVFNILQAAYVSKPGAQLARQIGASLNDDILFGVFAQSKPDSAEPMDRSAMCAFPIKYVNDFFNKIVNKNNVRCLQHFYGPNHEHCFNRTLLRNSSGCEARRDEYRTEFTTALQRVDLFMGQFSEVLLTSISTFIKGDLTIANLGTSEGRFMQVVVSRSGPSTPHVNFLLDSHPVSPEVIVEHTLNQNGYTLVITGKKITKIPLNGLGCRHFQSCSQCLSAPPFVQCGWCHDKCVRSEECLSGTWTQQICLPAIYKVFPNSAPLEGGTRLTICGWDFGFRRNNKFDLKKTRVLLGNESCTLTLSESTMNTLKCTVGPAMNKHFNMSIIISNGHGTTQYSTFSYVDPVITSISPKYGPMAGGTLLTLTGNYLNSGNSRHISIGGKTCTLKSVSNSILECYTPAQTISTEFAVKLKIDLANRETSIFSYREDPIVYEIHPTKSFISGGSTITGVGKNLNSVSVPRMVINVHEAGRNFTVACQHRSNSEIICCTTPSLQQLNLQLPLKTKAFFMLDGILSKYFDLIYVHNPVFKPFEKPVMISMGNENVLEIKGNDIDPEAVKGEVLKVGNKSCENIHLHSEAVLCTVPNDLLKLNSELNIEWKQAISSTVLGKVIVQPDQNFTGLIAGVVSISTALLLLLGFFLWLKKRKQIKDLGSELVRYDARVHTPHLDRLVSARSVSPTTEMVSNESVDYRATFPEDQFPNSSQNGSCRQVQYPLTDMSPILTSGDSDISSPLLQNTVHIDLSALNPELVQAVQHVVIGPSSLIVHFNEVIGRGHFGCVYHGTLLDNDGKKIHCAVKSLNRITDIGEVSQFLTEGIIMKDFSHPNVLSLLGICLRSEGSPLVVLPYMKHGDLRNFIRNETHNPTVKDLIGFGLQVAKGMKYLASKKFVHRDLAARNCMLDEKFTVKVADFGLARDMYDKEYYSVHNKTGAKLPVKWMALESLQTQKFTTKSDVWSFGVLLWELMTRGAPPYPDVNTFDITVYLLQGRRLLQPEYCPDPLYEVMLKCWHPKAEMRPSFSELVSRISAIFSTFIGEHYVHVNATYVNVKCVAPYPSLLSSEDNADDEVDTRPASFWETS

Chain of KDR (h) (P35968 20-1356): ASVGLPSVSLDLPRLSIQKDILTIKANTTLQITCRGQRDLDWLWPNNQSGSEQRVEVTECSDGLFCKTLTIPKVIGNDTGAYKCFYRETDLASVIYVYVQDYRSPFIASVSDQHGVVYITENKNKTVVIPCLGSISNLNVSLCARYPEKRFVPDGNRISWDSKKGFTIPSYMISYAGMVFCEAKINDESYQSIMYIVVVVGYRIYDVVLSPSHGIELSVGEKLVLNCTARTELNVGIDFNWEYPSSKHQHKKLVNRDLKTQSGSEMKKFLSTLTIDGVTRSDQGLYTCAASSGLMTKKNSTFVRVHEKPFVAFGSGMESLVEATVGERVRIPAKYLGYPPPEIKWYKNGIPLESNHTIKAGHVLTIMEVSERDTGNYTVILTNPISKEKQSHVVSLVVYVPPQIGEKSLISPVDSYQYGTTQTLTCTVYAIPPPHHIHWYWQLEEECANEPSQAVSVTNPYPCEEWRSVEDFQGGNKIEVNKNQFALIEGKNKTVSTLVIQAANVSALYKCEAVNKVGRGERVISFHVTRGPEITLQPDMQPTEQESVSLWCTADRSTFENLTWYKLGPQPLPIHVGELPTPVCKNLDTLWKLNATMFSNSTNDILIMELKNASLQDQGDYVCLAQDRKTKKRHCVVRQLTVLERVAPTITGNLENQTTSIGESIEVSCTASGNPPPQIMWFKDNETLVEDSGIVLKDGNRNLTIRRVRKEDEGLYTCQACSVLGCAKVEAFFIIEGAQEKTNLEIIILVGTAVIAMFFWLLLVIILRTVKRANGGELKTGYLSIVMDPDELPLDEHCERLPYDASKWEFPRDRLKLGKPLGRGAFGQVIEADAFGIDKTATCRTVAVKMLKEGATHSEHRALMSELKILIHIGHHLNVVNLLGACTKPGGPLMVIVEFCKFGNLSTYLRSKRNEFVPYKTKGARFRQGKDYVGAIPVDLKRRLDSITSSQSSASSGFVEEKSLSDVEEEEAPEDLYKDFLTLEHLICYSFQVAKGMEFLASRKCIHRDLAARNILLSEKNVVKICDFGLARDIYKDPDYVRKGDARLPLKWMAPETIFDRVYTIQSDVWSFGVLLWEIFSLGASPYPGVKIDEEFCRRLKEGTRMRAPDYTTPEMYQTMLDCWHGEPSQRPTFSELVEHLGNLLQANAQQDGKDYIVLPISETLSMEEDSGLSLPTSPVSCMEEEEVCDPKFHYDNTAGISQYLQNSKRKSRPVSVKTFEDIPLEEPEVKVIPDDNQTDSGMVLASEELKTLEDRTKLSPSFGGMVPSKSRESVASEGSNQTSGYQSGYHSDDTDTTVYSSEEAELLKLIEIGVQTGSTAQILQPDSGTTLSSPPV

| pKd (KDR (h)) | Cl/F ([1]; dose 1 mg/kg) | F ([1]; iv dose 1 mg/kg) | AUC(0-t) ([1]; dose 1 mg/kg) | half-life ([1]; dose 1 mg/kg) | Vd ([1]; dose 1 mg/kg) | stability / metabolism in rat liver microsomes (in words) [2] | half-life at 5 μM [2] | CLint scaled at 5 μM [2] | pKd (c-Met (h)) | Cl/F ([1]; dose 2 mg/kg) | F ([1]; iv dose 2 mg/kg) | AUC(0-t) ([1]; dose 2 mg/kg) | half-life ([1]; dose 2 mg/kg) | Vd ([1]; dose 2 mg/kg) | Compound | TGI% (on last day of dosing) (U87MG glioblastoma cells; 6 mg/kg) | TGI% (on last day of dosing) (U87MG glioblastoma cells; 30 mg/kg) |
| --- | --- | --- | --- | --- | --- | --- | --- | --- | --- | --- | --- | --- | --- | --- | --- | --- | --- |
| 8.20 | 0.83 mL/min/kg | 133.5% | 14000 ng·h/mL | 4.61 h | 0.34 L/kg | little metabolized | 3.93 h | 10.5 mL/min/kg | 9.30 | – | – | – | – | – | Cc1c(C(=O)Nc2ccc(Oc3ccnc(NC(=O)C4CC4)c3)c(F)c2)c(=O)n(-c2ccccc2)n1C [Example 11, N-(4-((2-(cyclopropanecarboxamido)pyridin-4-yl)oxy)-3-fluorophenyl)-1,5-dimethyl-3-oxo-2-phenyl-2,3-dihydro-1H-pyrazole-4-carboxamide] | 56% | 97% |
| 8.49 | – | – | – | – | – | little metabolized | 11.7 h | 3.53 mL/min/kg | 8.62 | 0.83 mL/min/kg | 85.88% | 38300 ng·h/mL | 4.06 h | 0.27 L/kg | Cc1c(C(=O)Nc2ccc(Oc3ccnc(NC(=O)C4CC4)c3)cn2)c(=O)n(-c2ccccc2)n1C [Example 8, N-(5-((2-(cyclopropanecarboxamido)pyridin-4-yl)oxy)pyridin-2-yl)-1,5-dimethyl-3-oxo-2-phenyl-2,3-dihydro-1H-pyrazole-4-carboxamide] | 32% | 78% |
| 6.35 | – | – | – | – | – | – | – | – | 6.70 | – | – | – | – | – | Cc1c(C(=O)Nc2ccc(Oc3ccnc(C(N)=O)c3)c(F)c2)c(=O)n(-c2ccccc2)n1C [Example 10, 4-(4-(1,5-dimethyl-3-oxo-2-phenyl-2,3-dihydro-1H-pyrazole-4-carboxamido)-2-fluorophenoxy)picolinamide] | – | – |
| 8.54 | 0.67 mL/min/kg | 94.49% | 23400 ng·h/mL | 5.95 h | 0.31 L/kg | little metabolized | 7.06 h | 5.86 mL/min/kg | 9.68 | – | – | – | – | – | Cc1c(C(=O)Nc2ccc(Oc3ccnc(NC(=O)C4CC4)c3)cc2)c(=O)n(-c2ccccc2)n1C [Example 16, N-(4-((2-(cyclopropanecarboxamido)pyridin-4-yl)oxy)phenyl)-1,5-dimethyl-3-oxo-2-phenyl-2,3-dihydro-1H-pyrazole-4-carboxamide] | – | – |
